Data published in US12486274B2, “Substituted pyrazolo-pyrimidines and uses thereof” (Verge Analytics, Inc., priority 2020, dated 2025).

Assays:
[1] = system: HEK 293T transfected with plasmids containing TDP-43 Q331K mutation; assay: HEK/TDP Survival assay (Cell-Titer-Glo); type: cell-based; conditions: Homo sapiens; HEK 293T TDP-43 Q331K, 48 hrs, CTG readout
Description: HEK/TDP Survival assay: Immortalized human embryonic kidney 293T (HEK 293T) were transfected with plasmids containing TDP-43 Q331K mutation, resulting in an increase in cell death that is biologically relevant to ALS patients. Cell death is measured as reductions in the amount of ATP, an indicator of metabolically active cells, that is quantified by a luminescence Cell-Titer-Glo® (CTG) reagent. Compounds are evaluated in this model for changes in CTG compared to no treatment group. Increased signal indicates improved survival (rescue) and decreased signal indicates decreased survival.
Cell rescue was measured in a 96-well format with eight different concentrations of the test compound over 48 hrs with 6 replicates. The Promega Cell-Titer-Glo® Luminescent Cell Viability Assay was used to quantify ATP, an indicator of metabolically active cells (see protocol: https://www.promega.com/-/media/files/resources/protocols/technical-manuals/101/celltiterglo-2-O-assay-protocol.pdf?la=en). The luminescence signal was detected using the PerkinElmer En Vision or Molecular Devices SpectraMax.
The effect of a compound at a given dose on cell viability was determined using a three step procedure. First, Hedge's g for the Cell Titer-Glo luminescence values using six untreated wells on every plate as a control was calculated. […] Finally, values from all compound-dose pairs were corrected for multiple hypothesis testing using the Empirical Bayes framework of Stephens, M. (False discovery rates: a new deal, Biostatistics, 18 [2], 2017, 275-294) yielding credible intervals for the measured effect and associated s values.
Briefly, this method computes a local false sign rate for each experiment. Analogous to the local false discovery rate of Efron, B. (Size, power and false discovery rates, Ann. Statist. 35 [4], 2007, 1351-1377) this value measures the confidence in the sign of each effect (rather than confidence in each effect being non-zero). The s values reported in the previous figures are the expected fraction of errors if estimating the sign of all effects with greater absolute local false sign rate, defined in analogy to the q value of Storey, JD (The positive false discovery rate: a Bayesian interpretation and the q-value, Ann. Statist. 31 [6] 2003, 2013-2035).
Drugs that yielded signed log s values greater than 3 were considered hits. This threshold was determined by a separate calibration experiment in which Cell Titer-Glo® was measured in blank plates consisting of untreated cells to assess the noise inherent in the assay. Data are presented as the maximal effect of rescue obtained from the dose-response curve.

[2] = system: C9 iPSC MN (ALS patient derived motor neurons); assay: iPSC MN Survival assay; type: cell-based, human; conditions: for EC50: Homo sapiens, iPSC, 144 h, motor neurons in nutrient deprived media (HBSS), six days, GFP imaging, read-out: C9 iPSC MN Significant survival rescue EC50; for C9 iPSC MN Survival hazard ratio: maximal reduction in hazard ratio vs control (Cox regression), <1.0 indicates increased survival
Description: [The source words this procedure for another variant and reports this variant under the same test.] iPSC MN Survival assay: Fibroblasts from ALS patients with known SOD1 A4V mutation were reprogrammed into inducible pluripotent stem cells (iPSC) and then differentiated to motor neurons. In culture, ALS patient derived motor neurons show increased death rate compared to motor neurons derived from healthy individuals in a stressed condition (nutrient deprived media, Hank's buffered salt solution-HBSS).
Cell rescue was measured following more than two different concentrations of each compound for six days with greater than four replicates in a 96-well format to ensure studies with power >0.8. Cells are transduced with a GFP reporter and imaged once a day to track survival. A broad-spectrum caspase inhibitor served as the positive control.
Microscopy image-based readout: Cells are transduced with a GFP reporter and imaged once a day with a blue laser to track survival. Imagers used include the Biotek Cytation 5 and Thermo Fisher EVOS Auto FL 2. All Images undergo uniform processing consisting of rolling hat background subtraction and contrast adjustment.
Cells are identified by their shape and each cell is tracked across images and time points for each well. Survival is visually assessed from the Kaplan-Meier curves. Survival of the cells is modeled and tested using a mixed effects Cox regression where each well is modeled as the random effect, and the group (control/treatment) as the fixed effect. Hazard ratios between treatment and control are estimated within the Cox regression where a value of 1.0 denotes no change, values >1.0 indicate decreased survival in response to treatment, and values <1.0 indicate increased survival in response to treatment. Data are presented as the maximal reduction in hazard ratio scores measured at various concentrations.

[3] = molecular target: Full length human recombinant PIKFYVE (Homo sapiens (Human), UniProt Q9Y2I7); assay: Inhibition of PIKfyve (microfluidic electrophoresis kinase assay); type: biochemical; conditions: 2 nM enzyme, PI3P/PS substrate, 3 h at room temperature, 12 concentrations
Procedure, shortened: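 GST-tagged full-length PIKfyve (baculovirus-expressed, 2 nM final) with fluorescent PI3P/PS substrate (1 μM PI3P) and […] in HEPES pH 7.5 with Mg2+/Mn2+, 1% DMSO, 3 h at room temperature; 12 concentrations. PI(3,5)P product and substrate separated by microfluidic electrophoresis; % inhibition from product/sum ratio.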

Full length human recombinant PIKFYVE, sequence (Q9Y2I7 whole entry): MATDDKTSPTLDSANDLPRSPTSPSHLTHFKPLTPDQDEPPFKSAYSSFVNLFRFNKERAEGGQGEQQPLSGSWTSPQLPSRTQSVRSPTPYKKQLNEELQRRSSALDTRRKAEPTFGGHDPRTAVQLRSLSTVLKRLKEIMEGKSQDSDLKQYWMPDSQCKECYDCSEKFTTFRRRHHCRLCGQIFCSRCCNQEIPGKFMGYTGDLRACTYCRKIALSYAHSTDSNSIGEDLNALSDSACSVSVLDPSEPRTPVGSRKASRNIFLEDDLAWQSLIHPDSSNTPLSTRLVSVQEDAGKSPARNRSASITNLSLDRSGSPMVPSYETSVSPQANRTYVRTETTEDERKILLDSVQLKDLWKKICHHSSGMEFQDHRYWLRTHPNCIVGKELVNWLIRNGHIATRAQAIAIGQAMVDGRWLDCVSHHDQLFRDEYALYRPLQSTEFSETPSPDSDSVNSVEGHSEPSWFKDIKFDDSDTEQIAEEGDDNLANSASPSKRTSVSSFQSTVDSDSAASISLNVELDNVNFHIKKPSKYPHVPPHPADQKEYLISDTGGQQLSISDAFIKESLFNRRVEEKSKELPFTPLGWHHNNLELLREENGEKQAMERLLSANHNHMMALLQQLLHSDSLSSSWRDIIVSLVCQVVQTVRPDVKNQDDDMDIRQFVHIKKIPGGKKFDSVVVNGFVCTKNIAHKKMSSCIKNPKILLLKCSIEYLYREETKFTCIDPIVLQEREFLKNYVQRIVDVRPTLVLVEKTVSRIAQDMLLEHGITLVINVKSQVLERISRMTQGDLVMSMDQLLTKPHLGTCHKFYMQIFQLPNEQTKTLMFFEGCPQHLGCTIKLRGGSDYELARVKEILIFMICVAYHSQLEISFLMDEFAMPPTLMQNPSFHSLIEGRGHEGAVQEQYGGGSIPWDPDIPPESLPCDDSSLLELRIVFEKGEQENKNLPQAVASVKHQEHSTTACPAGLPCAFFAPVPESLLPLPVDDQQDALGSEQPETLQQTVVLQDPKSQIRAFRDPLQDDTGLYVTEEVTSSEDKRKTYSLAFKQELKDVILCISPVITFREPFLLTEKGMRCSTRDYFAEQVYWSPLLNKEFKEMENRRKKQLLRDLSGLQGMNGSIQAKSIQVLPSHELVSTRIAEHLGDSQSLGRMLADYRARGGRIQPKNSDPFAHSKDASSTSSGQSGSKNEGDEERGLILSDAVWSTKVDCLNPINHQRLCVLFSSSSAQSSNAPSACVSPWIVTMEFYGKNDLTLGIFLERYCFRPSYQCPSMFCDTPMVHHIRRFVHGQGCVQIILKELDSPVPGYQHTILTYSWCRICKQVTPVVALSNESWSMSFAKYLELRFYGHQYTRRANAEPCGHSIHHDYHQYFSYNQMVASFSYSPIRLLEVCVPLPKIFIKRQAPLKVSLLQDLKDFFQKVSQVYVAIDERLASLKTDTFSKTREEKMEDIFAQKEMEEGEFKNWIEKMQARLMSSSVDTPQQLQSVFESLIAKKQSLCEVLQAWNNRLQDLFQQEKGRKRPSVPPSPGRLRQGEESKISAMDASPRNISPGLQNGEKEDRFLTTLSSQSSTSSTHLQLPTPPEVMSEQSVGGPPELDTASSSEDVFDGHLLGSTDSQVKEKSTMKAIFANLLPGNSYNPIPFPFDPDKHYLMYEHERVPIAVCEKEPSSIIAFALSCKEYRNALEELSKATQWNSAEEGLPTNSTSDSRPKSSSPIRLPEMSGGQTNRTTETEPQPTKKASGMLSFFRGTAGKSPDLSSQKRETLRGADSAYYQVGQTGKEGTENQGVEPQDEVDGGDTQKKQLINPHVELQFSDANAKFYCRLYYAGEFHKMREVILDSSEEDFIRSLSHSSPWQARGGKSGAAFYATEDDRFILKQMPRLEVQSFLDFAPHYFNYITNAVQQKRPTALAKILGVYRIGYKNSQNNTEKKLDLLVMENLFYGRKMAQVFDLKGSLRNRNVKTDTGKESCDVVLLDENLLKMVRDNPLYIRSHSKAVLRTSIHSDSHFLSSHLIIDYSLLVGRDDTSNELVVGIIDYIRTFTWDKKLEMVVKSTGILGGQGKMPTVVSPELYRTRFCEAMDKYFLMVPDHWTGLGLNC

Row | IC50 [3] | Structure (SMILES) | EC50 [1] | EC50 [2] | C9 iPSC MN Survival hazard ratio [2]
1 | 0.0068 µM | Cc1cccc(-c2ccn(-c3cc(N4CCOCC4)n4nc(-c5cccnc5)cc4n3)n2)c1 [Example 17, 4-(2-(pyridin-3-yl)-5-(3-(m-tolyl)-1H-pyrazol-1-yl)pyrazolo[1,5-a]pyrimidin-7-yl)morpholine] | 0.095 µM | 1 µM | 0.82
2 | 0.0324 µM | Cc1cccc(-c2ccn(-c3cc(N4CCOCC4)n4nc(C(=O)NCCCCN(C)C)cc4n3)n2)c1 [Example 41, N-(4-(dimethylamino)butyl)-7-morpholino-5-(3-(m-tolyl)-1H-pyrazol-1-yl)pyrazolo[1,5-a]pyrimidine-2-carboxamide] | 0.067 µM |  | 
3 | 0.0302 µM | Cc1cccc(-c2ccn(-c3cc(N4CCOCC4)n4nc(C(=O)NC5CC5)cc4n3)n2)c1 [Example 20, N-cyclopropyl-7-morpholino-5-(3-(m-tolyl)-1H-pyrazol-1-yl)pyrazolo[1,5-a]pyrimidine-2-carboxamide] | 0.103 µM |  | 0.85
4 | 0.0216 µM | Cc1cccc(-c2ccn(-c3cc(N4CCOCC4)n4nc(C(=O)NC5CCCC5)cc4n3)n2)c1 [Example 36, N-cyclopentyl-7-morpholino-5-(3-(m-tolyl)-1H-pyrazol-1-yl)pyrazolo[1,5-a]pyrimidine-2-carboxamide] | 0.067 µM |  | 
5 | 0.0216 µM | Cc1cccc(-c2ccn(-c3cc(N4CCOCC4)n4nc(C(=O)N[C@H](C)C5CC5)cc4n3)n2)c1 [Example 21, (R)—N-(1-cyclopropylethyl)-7-morpholino-5-(3-(m-tolyl)-1H-pyrazol-1-yl)pyrazolo[1,5-a]pyrimidine-2-carboxamide] | 0.11 µM |  | 
6 | 0.0464 µM | Cc1cccc(-c2ccn(-c3cc(N4CCOCC4)n4nc(C(=O)NCC5COC5)cc4n3)n2)c1 [Example 43, 7-morpholino-N-(oxetan-3-ylmethyl)-5-(3-(m-tolyl)-1H-pyrazol-1-yl)pyrazolo[1,5-a]pyrimidine-2-carboxamide] | 0.092 µM |  | 
7 | 0.0043 µM | Cc1cccc(-c2ccn(-c3cc(N4CCOCC4)n4nc(-c5ccncc5)cc4n3)n2)c1 [Example 14, 4-[5-[3-(m-tolyl)pyrazol-1-yl]-2-(4-pyridyl)pyrazolo[1,5-a]pyrimidin-7-yl]morpholine] | 0.144 µM | > 6 µM | 0.94
8 | 6.42 µM | Cc1cccc(-c2cnn(-c3cc(N4CCOCC4)n4nc(C(=O)NC5CCN(C)CC5)cc4n3)c2)c1 [Compound 55, N-(1-methyl-4-piperidyl)-7-morpholino-5-[4-(m-tolyl)pyrazol-1-yl]pyrazolo[1,5-a]pyrimidine-2-carboxamide] |  |  | 
9 | 0.0257 µM | Cc1cccc(-c2ccn(-c3cc(N4CCOCC4)n4nc(C(=O)NC(C)C)cc4n3)n2)c1 [Example 38, N-isopropyl-7-morpholino-5-(3-(m-tolyl)-1H-pyrazol-1-yl)pyrazolo[1,5-a]pyrimidine-2-carboxamide] |  |  | 
10 | 6.1 µM | c1cc(-c2cc3nc(Nc4cc(-c5ccncc5)[nH]n4)cc(N4CCOCC4)n3n2)ccn1 [Example 6, 7-morpholino-2-(4-pyridyl)-N-[5-(4-pyridyl)-1H-pyrazol-3-yl]pyrazolo[1,5-a]pyrimidin-5-amine] |  |  | 
11 | 0.0126 µM | Cc1cccc(-c2ccn(-c3cc(N4CCOCC4)n4nc(C(=O)N[C@@H](C)C5CC5)cc4n3)n2)c1 [Example 22, (S)—N-(1-cyclopropylethyl)-7-morpholino-5-(3-(m-tolyl)-1H-pyrazol-1-yl)pyrazolo[1,5-a]pyrimidine-2-carboxamide] | 0.112 µM |  | 
12 | 1.1 µM | c1cc(-c2ccn(-c3cc(N4CCOCC4)n4nc(-c5ccncc5)cc4n3)n2)ccn1 [Example 15, 4-[2-(4-pyridyl)-5-[3-(4-pyridyl)pyrazol-1-yl]pyrazolo[1,5-a]pyrimidin-7-yl]morpholine] |  |  | 

Continued, compound first:

Row | Structure (SMILES) | IC50 [3] | EC50 [1] | EC50 [2] | C9 iPSC MN Survival hazard ratio [2]
13 | CONC(=O)c1cc2nc(-n3ccc(-c4cccc(C)c4)n3)cc(N3CCOCC3)n2n1 [Example 34, N-methoxy-7-morpholino-5-(3-(m-tolyl)-1H-pyrazol-1-yl)pyrazolo[1,5-a]pyrimidine-2-carboxamide] | 0.0656 µM |  |  | 0.82
14 | Cc1cccc(-c2ccn(-c3cc(N4CCOCC4)n4nc(-c5ccccn5)cc4n3)n2)c1 [Example 18, 4-(2-(pyridin-2-yl)-5-(3-(m-tolyl)-1H-pyrazol-1-yl)pyrazolo[1,5-a]pyrimidin-7-yl)morpholine] | 0.0296 µM | 0.105 µM | 1 µM | 
15 | Cc1cccc(-c2cnn(-c3cc(N4CCOCC4)n4nc(-c5cncnc5)cc4n3)c2)c1 [Compound 58, 4-[5-[4-(m-tolyl)pyrazol-1-yl]-2-pyrimidin-5-yl-pyrazolo[1,5-a]pyrimidin-7-yl]morpholine] | > 20 µM |  |  | 
16 | Cc1cccc(-c2ccn(-c3cc(N4CCOCC4)n4nc(-c5cc(C)n(C)n5)cc4n3)n2)c1 [Compound 87, 4-[2-(1,5-dimethylpyrazol-3-yl)-5-[3-(m-tolyl)pyrazol-1-yl]pyrazolo[1,5-a]pyrimidin-7-yl]morpholine] | 0.0009 µM |  |  | 
17 | Cc1cccc(-c2ccn(-c3cc(N4CCOCC4)n4nc(C(=O)N5CCC5)cc4n3)n2)c1 [Example 28, azetidin-1-yl(7-morpholino-5-(3-(m-tolyl)-1H-pyrazol-1-yl)pyrazolo[1,5-a]pyrimidin-2-yl)methanone] | 0.137 µM |  |  | 
18 | Cc1cccc(-c2cnn(-c3cc(N4CCOCC4)n4nc(-c5ccncn5)cc4n3)c2)c1 [Compound 57, 4-[5-[4-(m-tolyl)pyrazol-1-yl]-2-pyrimidin-4-yl-pyrazolo[1,5-a]pyrimidin-7-yl]morpholine] | 3.75 µM |  |  | 
19 | C[C@@H](NC(=O)c1cc2nc(-n3ccc(-c4ccccc4)n3)cc(N3CCOCC3)n2n1)C1CC1 [Compound 74, N-[(1R)-1-cyclopropylethyl]-7-morpholino-5-(3-phenylpyrazol-1-yl)pyrazolo[1,5-a]pyrimidine-2-carboxamide] | 0.353 µM |  |  | 
20 | Cc1cccc(-c2ccn(-c3cc(N4CCOCC4)n4nc(C(=O)N5CCOCC5)cc4n3)n2)c1 [Example 31, morpholino (7-morpholino-5-(3-(m-tolyl)-1H-pyrazol-1-yl)pyrazolo[1,5-a]pyrimidin-2-yl)methanone] | 0.242 µM |  |  | 
21 | Cc1cccc(-c2ccn(-c3cc(N4CCOCC4)n4nc(C(=O)N[C@@H]5CCOC5)cc4n3)n2)c1 [Compound 51, 7-morpholino-5-[3-(m-tolyl)pyrazol-1-yl]-N-[(3R)-tetrahydrofuran-3-yl]pyrazolo[1,5-a]pyrimidine-2-carboxamide] | 0.0647 µM |  |  | 
22 | Cc1ccnc(-c2ccn(-c3cc(N4CCOCC4)n4nc(-c5cc(C)n(CCN(C)C)n5)cc4n3)n2)c1 [Compound 95, N,N-dimethyl-2-[5-methyl-3-[5-[3-(4-methyl-2-pyridyl)pyrazol-1-yl]-7-morpholino-pyrazolo[1,5-a]pyrimidin-2-yl]pyrazol-1-yl]ethanamine] | 0.35 µM |  |  | 
23 | CC(C)NC(=O)c1cc2nc(-n3ccc(-c4ccccc4)n3)cc(N3CCOCC3)n2n1 [Compound 73, N-isopropyl-7-morpholino-5-(3-phenylpyrazol-1-yl)pyrazolo[1,5-a]pyrimidine-2-carboxamide] | 0.335 µM |  |  | 
